Test results reported in US8933039B2 (NPS Pharmaceuticals, Inc., priority 1995, dated 2015).
Non-standard residues stand in square brackets, D forms with d. Residues, ends and D or L forms follow the SMILES beside them. No end group written: not given here. Phg = N[C@H](C(=O)O)c1ccccc1

Experiments:
[1] = tested on: CD1 mice; assay: Intestinotrophic activity assessment: small bowel weight in mice; assay type: in vivo; details: for % Activity (small bowel inducing activity relative to native rat GLP-2(1-33) = 100%): mice, as Example 4
Experimental: Recipients were CD1 mice obtained from Charles River Laboratory (Ontario, Canada). The CD1 mice were aged-matched females at time of injection (n=3-4 per group), 6 weeks of age, unless otherwise specified. The animals were allowed a minimum of 24 hours to acclimatize to the laboratory facility before the initiation of each experiment. Animals were identified by ear punch. The mice were not restricted by diet or activity during the experiments. The light/dark cycle was 12 hours, between 6 pm to 6 am. Controls were age- and sex-matched (n=3-4) animals. Mice were injected subcutaneously, twice a day (b.i.d.), with 2.5 μg peptide in a total volume of 0.5 cc of PBS and were monitored daily in the laboratory facility. Animals were sacrificed 10 or 14 days after injection, and were fasted at least 20 hours before sacrifice.
The mice were anaesthetised with CO2 and exsanguinated by cardiac puncture. Blood was collected in 75 μl of TED (Trasysol; EDTA (5000 KIU/ml: 1.2 mg/ml; Diprotin-A), and the blood was centrifuged at 14 k×g for 5 minutes and the plasma was stored at −70 prior to analysis. The small bowel was removed from the peritoneal cavity, from pylorus to cecum, cleaned weighed and measured. For comparative purpose, sections from each animal were obtained from the identical anatomical position. Fragments each measuring 1.5-2.0 cm in length were obtained 8±2 cm, 18±2 cm, 32±2 cm from pylorus for histomorphometry representing proximal jejunum, distal jejunum and distal ileum. Each small bowel fragment was opened longitudinally on its antimesenteric border in a tissue block and then placed on 10% formalin (vol./vol.) overnight, then transferred to 70% […].
Percentage change in small bowel weight was calculated by dividing the mean change in bowel weight of analog treated mice, relative to mice treated with vehicle only, by the mean bowel weight of mice treated with vehicle only, and multiplying this figure by 100.
Experiments assessing the small bowel inducing activity of various analogs was repeated as described above for Example 4. In these experiments, the small bowel inducing activity of each analog in mice was calculated relative to that of native rat GLP-2(1-33) (expressed as 100% of activity). Resistance of analogs to DPP-IV cleavage was performed as described above in Example 3.

[2] = target: DPP-IV (Homo sapiens, UniProt P27487); assay: Assay for resistance to dipeptidyl peptidase IV (RP-HPLC of cleavage product); details: human, isolated human placental DPP-IV (dipeptidyl peptidase IV), pH 7.4, % Cleaved by DPP-IV, as Example 3: human placental DPP-IV, 37° C., PBS pH 7.4
DPP-IV, sequence (P27487 whole entry): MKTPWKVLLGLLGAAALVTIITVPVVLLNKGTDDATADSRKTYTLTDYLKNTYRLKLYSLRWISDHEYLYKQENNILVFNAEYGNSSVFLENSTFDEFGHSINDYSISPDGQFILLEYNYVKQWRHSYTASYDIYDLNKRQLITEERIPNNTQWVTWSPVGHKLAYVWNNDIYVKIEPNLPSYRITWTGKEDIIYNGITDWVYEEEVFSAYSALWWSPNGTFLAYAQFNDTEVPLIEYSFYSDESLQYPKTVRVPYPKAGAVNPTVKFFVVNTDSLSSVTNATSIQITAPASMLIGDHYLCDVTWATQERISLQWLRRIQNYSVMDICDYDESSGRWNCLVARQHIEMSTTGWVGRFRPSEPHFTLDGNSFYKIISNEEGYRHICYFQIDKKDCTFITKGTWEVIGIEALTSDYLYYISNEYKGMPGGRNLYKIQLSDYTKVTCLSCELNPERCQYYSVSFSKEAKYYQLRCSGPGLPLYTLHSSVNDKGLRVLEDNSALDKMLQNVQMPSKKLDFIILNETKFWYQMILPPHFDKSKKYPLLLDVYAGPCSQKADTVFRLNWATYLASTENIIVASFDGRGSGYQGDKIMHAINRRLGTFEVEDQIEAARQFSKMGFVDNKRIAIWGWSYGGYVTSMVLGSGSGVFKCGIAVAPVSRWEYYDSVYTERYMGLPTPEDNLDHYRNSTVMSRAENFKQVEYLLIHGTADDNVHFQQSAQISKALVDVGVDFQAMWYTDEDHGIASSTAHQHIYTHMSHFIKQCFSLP

Row | metabolised at 24 h, 0.19 mg/ml [2] [%] | Molecule | % Activity (small bowel inducing activity relative to native rat GLP-2(1-33) = 100%) [1] [%] | % Increase in small bowel weight ([1]; CD1 mice, 2.5 μg peptide s.c. b.i.d. in PBS, sacrificed 10 or 14 days, relative to vehicle only) [%]
1 | 0 | CC[C@H](C)[C@H](NC(=O)[C@H](Cc1ccccc1)NC(=O)[C@H](CC(=O)O)NC(=O)[C@H](CCCNC(=N)N)NC(=O)[C@H](C)NC(=O)[C@H](C)NC(=O)[C@H](CC(C)C)NC(=O)[C@H](CC(N)=O)NC(=O)[C@H](CC(=O)O)NC(=O)[C@H](CC(C)C)NC(=O)[C@@H](NC(=O)[C@@H](NC(=O)[C@H](CC(N)=O)NC(=O)[C@H](CCSC)NC(=O)[C@H](CCC(=O)O)NC(=O)[C@H](CC(=O)O)NC(=O)[C@H](CO)NC(=O)[C@H](Cc1ccccc1)NC(=O)[C@H](CO)NC(=O)CNC(=O)[C@H](CC(=O)O)NC(=O)[C@@H](NC(=O)[C@@H](N)Cc1c[nH]cn1)c1ccccc1)[C@@H](C)O)[C@@H](C)CC)C(=O)N[C@@H](CC(N)=O)C(=O)N[C@@H](Cc1c[nH]c2ccccc12)C(=O)N[C@@H](CC(C)C)C(=O)N[C@H](C(=O)N[C@@H](CCC(N)=O)C(=O)N[C@H](C(=O)N[C@@H](CCCCN)C(=O)N[C@H](C(=O)N[C@H](C(=O)N[C@@H](CC(=O)O)C(=O)O)[C@@H](C)O)[C@@H](C)CC)[C@@H](C)O)[C@@H](C)CC [[PhGly2]hGLP-2(1-33)] (H-H[Phg]DGSFSDEMNTILDNLAARDFINWLIQTKITD-OH) | 37 | 
2 | 0 | H-HYDGSFSDEMNTILDNLAARDFINWLIQTKITD-OH [[Tyr2]hGLP-2(1-33)] | 57 | 
3 | 0 | H-YGDGSFSDEMNTILDNLAARDFINWLIQTKITD-OH [[Tyr1, Gly2]hGLP-2(1-33)] | 241 | 
4 | 0 | CC[C@H](C)[C@H](NC(=O)[C@H](Cc1ccccc1)NC(=O)[C@H](CC(=O)O)NC(=O)[C@H](CCCNC(=N)N)NC(=O)[C@H](C)NC(=O)[C@H](C)NC(=O)[C@H](CC(C)C)NC(=O)[C@H](CC(N)=O)NC(=O)[C@H](CC(=O)O)NC(=O)[C@H](CC(C)C)NC(=O)[C@@H](NC(=O)[C@@H](NC(=O)[C@H](CC(N)=O)NC(=O)[C@H](CCSC)NC(=O)[C@H](CCC(=O)O)NC(=O)[C@H](CC(=O)O)NC(=O)[C@H](CO)NC(=O)[C@H](Cc1ccccc1)NC(=O)[C@H](CO)NC(=O)CNC(=O)[C@H](CC(=O)O)NC(=O)CNC(=O)[C@@H](N)Cc1c[nH]cn1)[C@@H](C)O)[C@@H](C)CC)C(=O)N[C@@H](CC(N)=O)C(=O)N[C@@H](Cc1c[nH]c2ccccc12)C(=O)N[C@@H](CC(C)C)C(=O)N[C@H](C(=O)N[C@@H](CCC(N)=O)C(=O)N[C@H](C(=O)N[C@@H](CCCCN)C(=O)N[C@H](C(=O)N[C@H](C(=O)N[C@@H](CC(=O)O)C(=O)N[C@@H](CCCNC(=N)N)C(=O)O)[C@@H](C)O)[C@@H](C)CC)[C@@H](C)O)[C@@H](C)CC [[Gly2, Arg34]hGLP-2(1-34)] | ~250 | 
5 | 0 | Ac-HADGSFSDEMNTILDNLATRDFINWLIQTKITD-OH [Ac-ratGLP-2(1-33)] | 44 | 
6 | 0 | H-HEDGSFSDEMNTILDNLAARDFINWLIQTKITD-OH [[Glu2]hGLP-2(1-33)] | 93 | 
7 | 0 | H-HMDGSFSDEMNTILDNLAARDFINWLIQTKITD-OH [[Met2]hGLP-2(1-33)] | 170 | 
8 | 0 | HVDGSFSDEMNTILDNLATRDFINWLIQTKITD [[Val2]GLP-2(1-33)] | 145 | 65
